Experimental data taken from ChEMBL document CHEMBL5120967, “Development of an Orally Active Small-Molecule Inhibitor of Receptor Activator of Nuclear Factor-κB Ligand” (J Med Chem, 2022).

Columns and labels:
[1] = Anti-osteoporosis activity C57/BL6 mouse bone marrow macrophage cells assessed as inhibition of RANKL-induced osteoclastogenesis at 1 uM measured after 5 to 6 days in presence of M-CSF and RNKL by TRAP staining microscopic analysis; type: functional, BMDM; set-up: scale not given: the % may be the effect or the level left; details: time 5-6 day
BMDM = test: Cytotoxicity against C57/BL6 mouse bone marrow macrophage cells assessed as reduction in cell viability at 10 uM incubated for 3 days by CCK8 assay; type: toxicity, cell-based; details: 72 h, time 3 day
[2] = Anti-osteoporosis activity C57/BL6 mouse bone marrow macrophage cells assessed as inhibition of RANKL-induced osteoclastogenesis at 0.1 uM measured after 5 to 6 days in presence of M-CSF and RNKL by TRAP staining microscopic analysis; type: functional, BMDM; set-up: scale not given: the % may be the effect or the level left; details: time 5-6 day
[3] = Oral bioavailability in OVX-induced C57/BL6 mouse model; type: ADME, organism-based; details: female, in vivo
[4] = Clearance in OVX-induced C57/BL6 mouse model at 3 mg/kg, iv; type: ADME, organism-based; details: female, in vivo
[5] = Half life in OVX-induced C57/BL6 mouse model at 3 mg/kg, iv; type: ADME, organism-based; details: female, in vivo
[6] = Cmax in OVX-induced C57/BL6 mouse model at 5 mg/kg, po; type: ADME, organism-based; set-up: dose 5 mg/kg, route po; details: female, in vivo
[7] = AUC(0 to t) in OVX-induced C57/BL6 mouse model at 3 mg/kg, iv; type: ADME, organism-based; set-up: dose 3 mg/kg, route iv; details: female, in vivo
[8] = AUC(0 to t) in OVX-induced C57/BL6 mouse model at 5 mg/kg, po; type: ADME, organism-based; set-up: dose 5 mg/kg, route po; details: female, in vivo
[9] = Half life in OVX-induced C57/BL6 mouse model at 5 mg/kg, po; type: ADME, organism-based; details: female, in vivo

Question: Which Activity [1] does the source give for `Cc1cccc(C)c1NC(=O)c1cc2c([nH]c3ccccc32)c(CCc2ccc(O)cc2)n1` here?
Answer: 23.8%

Question: What about the Cell viability (BMDM) of the same compound?
Answer: 76.9%

Question: Which results are given for `Cn1cc(NC(=O)c2cc3c([nH]c4ccccc43)c(CCc3ccccc3)n2)cn1`?
Answer: Activity [1]: 0%; Cell viability (BMDM): > 100%

Question: Which Cell viability (BMDM) does the source give for `Cc1cccc(C)c1NC(=O)c1cc2c([nH]c3ccccc32)c(CCc2nccs2)n1` here?
Answer: 71%

Question: For `Cc1cccc(C)c1NC(=O)c1cc2c([nH]c3ccccc32)c(CCc2cccc(O)c2)n1`, which Activity [1] is on record?
Answer: 0%

Question: And the Cell viability (BMDM)?
Answer: > 100%

Question: For `Cc1cccc(C)c1NC(=O)c1cc2c([nH]c3ccccc32)c(CCc2ccc(C#N)cc2)n1`, which Activity [1] is on record?
Answer: 79.5%

Question: And the Cell viability (BMDM)?
Answer: > 100%

Question: And the Activity [2]?
Answer: 16.5%

Question: For `Cc1cccc(C)c1NC(=O)c1cc2c([nH]c3ccccc32)c(CNc2ccccc2)n1`, which Cell viability (BMDM) is on record?
Answer: 67.6%

Question: Which results are given for `COc1ccccc1CCc1nc(C(=O)Nc2c(C)cccc2C)cc2c1[nH]c1ccccc12`?
Answer: Activity [1]: 83%; Cell viability (BMDM): > 100%; Activity [2]: 33.6%

Question: For `Cc1cccc(C)c1NC(=O)c1cc2c([nH]c3ccccc32)c(CCc2ncc[nH]2)n1`, which Activity [1] is on record?
Answer: 28.6%

Question: What about the Cell viability (BMDM) of the same compound?
Answer: > 100%

Question: Which Activity [1] does the source give for `Cc1cccc(C)c1NC(=O)c1cc2c([nH]c3ccccc32)c(CCC2CCCCC2)n1` here?
Answer: 52.8%

Question: And the Cell viability (BMDM)?
Answer: > 100%

Question: What about the Activity [2] of the same compound?
Answer: 9.1%

Question: Which Activity [1] does the source give for `Cc1cccc(C)c1NC(=O)c1cc2c([nH]c3ccccc32)c(CCc2ccc(C(F)(F)F)cc2)n1` here?
Answer: 72.5%

Question: What about the Cell viability (BMDM) of the same compound?
Answer: > 100%

Question: And the Activity [2]?
Answer: 19.5%

Question: Which Activity [1] does the source give for `Cl.O=C(NC1CCNCC1)c1cc2c([nH]c3ccccc32)c(CCc2ccccc2)n1` here?
Answer: 0%

Question: What about the Cell viability (BMDM) of the same compound?
Answer: 47.9%

Question: Which results are given for `COc1ccc(CCc2nc(C(=O)Nc3c(C)cccc3C)cc3c2[nH]c2ccccc23)cc1`?
Answer: Activity [1]: 75.7%; Cell viability (BMDM): > 100%; Activity [2]: 29.3%

Question: Which results are given for `O=C(Nc1nccs1)c1cc2c([nH]c3ccccc32)c(CCc2ccccc2)n1`?
Answer: Activity [1]: 27%; Cell viability (BMDM): > 100%

Question: Which Activity [1] does the source give for `O=C(NC1CC1)c1cc2c([nH]c3ccccc32)c(CCc2ccccc2)n1` here?
Answer: 0%

Question: And the Cell viability (BMDM)?
Answer: > 100%

Question: For `Cc1ccc(CCc2nc(C(=O)Nc3c(C)cccc3C)cc3c2[nH]c2ccccc23)cc1`, which Activity [1] is on record?
Answer: 77.6%

Question: What about the Cell viability (BMDM) of the same compound?
Answer: > 100%

Question: What about the Activity [2] of the same compound?
Answer: 16.2%

Question: With `COC(=O)c1ccc(CCc2nc(C(=O)Nc3c(C)cccc3C)cc3c2[nH]c2ccccc23)cc1` as the compound, how does the Activity [1] read?
Answer: 77.6%

Question: And the Cell viability (BMDM)?
Answer: 99.6%

Question: And the Activity [2]?
Answer: 28.5%

Question: Which results are given for `Cc1cccc(C)c1NC(=O)c1cc2c([nH]c3ccccc32)c(CCc2cccc(F)c2)n1`?
Answer: Activity [1]: 54.7%; Cell viability (BMDM): > 100%; Activity [2]: 21%

Question: For `Cc1cccc(C)c1NC(=O)c1cc2c([nH]c3ccccc32)c(CCc2ccc(C(=O)O)cc2)n1`, which Activity [1] is on record?
Answer: 85.9%

Question: And the Cell viability (BMDM)?
Answer: > 100%

Question: What about the Activity [2] of the same compound?
Answer: 37.6%

Question: Which Cell viability (BMDM) does the source give for `Cc1cccc(C)c1NC(=O)c1cc2c([nH]c3ccccc32)c(CCc2cccnc2)n1` here?
Answer: 51.2%

Question: Which Activity [1] does the source give for `Cc1cccc(C)c1NC(=O)c1cc2c([nH]c3ccccc32)c(CCc2ccccc2O)n1` here?
Answer: 36%

Question: What about the Cell viability (BMDM) of the same compound?
Answer: 87.1%

Question: Which Activity [1] does the source give for `Cc1cccc(C)c1NC(=O)c1cc2c([nH]c3ccccc32)c(CCc2ccc(F)cc2)n1` here?
Answer: 65.2%

Question: What about the Cell viability (BMDM) of the same compound?
Answer: > 100%

Question: What about the Activity [2] of the same compound?
Answer: 28.2%

Question: Which results are given for `O=C(c1cc2c([nH]c3ccccc32)c(CCc2ccccc2)n1)N1CCOCC1`?
Answer: Activity [1]: 32.6%; Cell viability (BMDM): > 100%

Question: Which Activity [1] does the source give for `Cc1cccc(C)c1NC(=O)c1cc2c([nH]c3ccccc32)c(CCc2ccncc2)n1` here?
Answer: 79.1%

Question: What about the Cell viability (BMDM) of the same compound?
Answer: > 100%

Question: What about the Activity [2] of the same compound?
Answer: 29.8%

Question: What does the source list for `O=C(Nc1ncc[nH]1)c1cc2c([nH]c3ccccc32)c(CCc2ccccc2)n1`?
Answer: Activity [1]: 78.9%; Cell viability (BMDM): > 100%; Activity [2]: 10.7%

Question: With `COc1cccc(CCc2nc(C(=O)Nc3c(C)cccc3C)cc3c2[nH]c2ccccc23)c1` as the compound, how does the Activity [1] read?
Answer: 82.3%

Question: What about the Cell viability (BMDM) of the same compound?
Answer: > 100%

Question: And the Activity [2]?
Answer: 27.1%

Question: What does the source list for `O=C(NCc1ccccc1)c1cc2c([nH]c3ccccc32)c(CCc2ccccc2)n1`?
Answer: Activity [1]: 0%; Cell viability (BMDM): > 100%

Question: Which Activity [1] does the source give for `Cc1cccc(C)c1NC(=O)c1cc2c([nH]c3ccccc32)c(CCc2ccc(N)cc2)n1` here?
Answer: 70.3%

Question: What about the Cell viability (BMDM) of the same compound?
Answer: > 100%

Question: And the Activity [2]?
Answer: 11.4%

Question: Which Activity [1] does the source give for `CNc1ccc(CCc2nc(C(=O)Nc3c(C)cccc3C)cc3c2[nH]c2ccccc23)cc1` here?
Answer: 37.9%

Question: What about the Cell viability (BMDM) of the same compound?
Answer: > 100%

Question: Which results are given for `Cc1cccc(C)c1NC(=O)c1cc2c([nH]c3ccccc32)c(CCc2ccccc2F)n1`?
Answer: Activity [1]: 66.7%; Cell viability (BMDM): > 100%; Activity [2]: 26.7%

Question: Which Activity [1] does the source give for `Cc1cccc(C)c1NC(=O)c1cc2c([nH]c3ccccc32)c(CCc2cc(F)cc(F)c2)n1` here?
Answer: 35.2%

Question: What about the Cell viability (BMDM) of the same compound?
Answer: > 100%

Question: Which results are given for `Cc1cccc(C)c1NC(=O)C(Cc1c[nH]c2ccccc12)NCCCc1ccccc1` (centres undefined)?
Answer: bioavailability [3]: 2.4%; clearance [4]: 51 mL/min/kg; half-life [5]: 1.2 h; Activity [1]: 32%; Cmax [6]: 10 ng/mL; Cell viability (BMDM): > 100%; AUC(0-t) [7]: 984 ng·h/mL; AUC(0-t) [8]: 38.8 ng·h/mL; half-life [9]: 0.9 h

Question: Which results are given for `Cc1cccc(C)c1NC(=O)c1cc2c([nH]c3ccccc32)c(CCc2ccc(Cl)cc2)n1`?
Answer: Activity [1]: 52.5%; Cell viability (BMDM): > 100%; Activity [2]: 11.3%

Question: With `O=C(Nc1ccccn1)c1cc2c([nH]c3ccccc32)c(CCc2ccccc2)n1` as the compound, how does the Activity [1] read?
Answer: 36.1%

Question: And the Cell viability (BMDM)?
Answer: > 100%

Question: With `O=C(NC1CCOCC1)c1cc2c([nH]c3ccccc32)c(CCc2ccccc2)n1` as the compound, how does the Activity [1] read?
Answer: 47.9%

Question: And the Cell viability (BMDM)?
Answer: > 100%

Question: Which Activity [1] does the source give for `O=C(Nc1cccnc1)c1cc2c([nH]c3ccccc32)c(CCc2ccccc2)n1` here?
Answer: 18.3%

Question: What about the Cell viability (BMDM) of the same compound?
Answer: > 100%

Question: Which results are given for `CC(=O)Nc1ccc(CCc2nc(C(=O)Nc3c(C)cccc3C)cc3c2[nH]c2ccccc23)cc1`?
Answer: Activity [1]: 55%; Cell viability (BMDM): > 100%; Activity [2]: 19%

Question: For `O=C(NC1CCCCC1)c1cc2c([nH]c3ccccc32)c(CCc2ccccc2)n1`, which Activity [1] is on record?
Answer: 0%

Question: What about the Cell viability (BMDM) of the same compound?
Answer: > 100%

Question: What does the source list for `O=C(Nc1ccncc1)c1cc2c([nH]c3ccccc32)c(CCc2ccccc2)n1`?
Answer: Activity [1]: 56.6%; Cell viability (BMDM): > 100%; Activity [2]: 18.4%

Question: Which results are given for `Cc1cccc(C)c1NC(=O)c1cc2c([nH]c3ccccc32)c(CCc2ccc(N(C)C)cc2)n1`?
Answer: Activity [1]: 54.7%; Cell viability (BMDM): > 100%; Activity [2]: 36.7%

Question: What does the source list for `Cc1cccc(C)c1NC(=O)c1cc2c([nH]c3ccccc32)c(CCc2ccc(P(C)(C)=O)cc2)n1`?
Answer: Activity [1]: 81.6%; Cell viability (BMDM): > 100%; Activity [2]: 32.6%

Question: Which Activity [1] does the source give for `O=C(Nc1cc[nH]n1)c1cc2c([nH]c3ccccc32)c(CCc2ccccc2)n1` here?
Answer: 39.9%

Question: What about the Cell viability (BMDM) of the same compound?
Answer: > 100%

Question: With `Cc1cc2occ(CN(C)CCN(C)Cc3cn(-c4cccc(C(F)(F)F)c4)c4ccccc34)c(=O)c2cc1C` as the compound, how does the Activity [1] read?
Answer: 56.1%

Question: And the Cell viability (BMDM)?
Answer: 3.8%

Question: What about the Activity [2] of the same compound?
Answer: 18.4%
